This is an account of results in US8232401B2 (Japan Tobacco Inc., priority 2002, dated 2012).

The test concerns the target T1, HIV integrase (Human immunodeficiency virus type 1 group M subtype B, UniProt P12497, F1332H).
T1 construct: HIV integrase full length gene; made in house; host or cells: Escherichia coli BL21(DE3)
Briefly: Determination of enzyme (HIV integrase) inhibitory activity (strand transfer, microtiter plate, absorbance at 450 nm). Type of test: biochemical, HIV (Human Immunodeficiency Virus (type 1)). The following applies: recombinant HIV integrase (F185H) expressed in E. coli; donor DNA on streptavidin plate, digoxigenin target DNA; 37° C.

With `CCOc1cc(Cc2cccc(Cl)c2F)cc2c(=O)c(C(=O)O)cn([C@H](CO)C(C)(C)C)c12` [Example 4-37, (S)-6-(3-Chloro-2-fluorobenzyl)-8-ethoxy-1-[2,2-dimethyl-1-(hydroxymethyl)propyl]-4-oxo-1,4-dihydroquinoline-3-carboxylic acid], the IC50 is 0.0019 µM.
For `Cc1ccc(Cl)c(Cc2ccc3c(c2)c(=O)c(C(=O)O)cn3CCO)c1` [Example 1-97, 6-(2-Chloro-5-methylbenzyl)-1-(2-hydroxyethyl)-4-oxo-1,4-dihydroquinoline-3-carboxylic acid], the 50% inhibitory concentration (IC50) worked out at 0.13 µM.
Turning to `CC(C)Oc1cc(Cc2cccc(Cl)c2F)cc2c(=O)c(C(=O)O)cn(CCO)c12` [Example 3-59, 6-(3-Chloro-2-fluorobenzyl)-1-(2-hydroxyethyl)-8-isopropyloxy-4-oxo-1,4-dihydroquinoline-3-carboxylic acid], the IC50 worked out at 0.008 µM.
The value for `Nn1cc(C(=O)O)c(=O)c2cc(Cc3cccc(Cl)c3Cl)ccc21` [Example 2-1, 1-Amino-6-(2,3-dichlorobenzyl)-4-oxo-1,4-dihydroquinoline-3-carboxylic acid] was 0.17 µM; that for `O=C(O)c1cn(CCO)c2c(F)cc(Cc3cccc(Cl)c3Cl)cc2c1=O` [Example 1-2, 6-(2,3-dichlorobenzyl)-1,4-dihydro-8-fluoro-1-(2-hydroxyethyl)-4-oxo-3-quinolinecarboxylic acid] was 0.033 µM.
The value for `CC(C)(C)n1cc(C(=O)O)c(=O)c2cc(Cc3cccc(Cl)c3F)ccc21` [Example 3-33, 1-tert-Butyl-6-(3-Chloro-2-fluorobenzyl)-4-oxo-1,4-dihydroquinoline-3-carboxylic acid] was 0.0087 µM.
In the case of `O=C(O)c1cn(CCO)c2ccc(Cc3cccc(-c4ccccc4)c3)cc2c1=O` [Example 1-88] it was 0.45 µM.
As for `CC(C)C[C@@H](CO)n1cc(C(=O)O)c(=O)c2cc(Cc3cccc(Cl)c3F)cc(OC(C)C)c21` [Example 4-25, (S)-6-(3-Chloro-2-fluorobenzyl)-1-(1-hydroxymethyl-3-methylbutyl)-8-isopropyloxy-4-oxo-1,4-dihydroquinoline-3-carboxylic acid], the IC50 was 0.0019 µM.
With `O=C(O)c1cn(CC(O)c2ccccc2)c2ccc(Cc3cccc(Cl)c3Cl)cc2c1=O` (centres unmarked) [Example 1-43, 6-(2,3-Dichlorobenzyl)-1-(2-hydroxy-2-phenylethyl)-4-oxo-1,4-dihydroquinoline-3-carboxylic acid], the IC50 turned out to be 0.024 µM.
Regarding `CN(C)c1cc2c(cc1Cc1cccc(Cl)c1F)c(=O)c(C(=O)O)cn2CCO` [Example 3-62, 6-(3-Chloro-2-fluorobenzyl)-7-dimethylamino-1-(2-hydroxyethyl)-4-oxo-1,4-dihydroquinoline-3-carboxylic acid], the IC50 is 0.027 µM.
In the case of `CCOc1cc2c(cc1Cc1cccc(Cl)c1F)c(=O)c(C(=O)O)cn2[C@H](CO)[C@@H](C)CC` [Example 4-28, 6-(3-Chloro-2-fluorobenzyl)-7-ethoxy-1-((1S,2S)-1-hydroxymethyl-2-methylbutyl)-4-oxo-1,4-dihydroquinoline-3-carboxylic acid], the IC50 amounted to 0.0027 µM.
The value for `NS(=O)(=O)Cn1cc(C(=O)O)c(=O)c2cc(Cc3cccc(Cl)c3Cl)ccc21` [Example 1-9, 6-(2,3-Dichlorobenzyl)-4-oxo-1-sulfamoylmethyl-1,4-dihydroquinoline-3-carboxylic acid] was 0.017 µM; that for `CCC[C@@H](CO)n1cc(C(=O)O)c(=O)c2cc(Cc3cccc(Cl)c3F)cc(OCC)c21` [Example 4-48, (S)-6-(3-Chloro-2-fluorobenzyl)-8-ethoxy-1-[1-(hydroxymethyl)butyl]-4-oxo-1,4-dihydroquinoline-3-carboxylic acid] was 0.003 µM.
As for `CC(C)(CO)n1cc(C(=O)O)c(=O)c2cc(Cc3cccc(Cl)c3F)ccc21` [Example 3-43, 6-(3-Chloro-2-fluorobenzyl)-1-(1,1-dimethyl-2-hydroxyethyl)-4-oxo-1,4-dihydroquinoline-3-carboxylic acid], the IC50 amounted to 0.018 µM.
Turning to `NC(=O)Cn1cc(C(=O)O)c(=O)c2cc(Cc3cccc(Cl)c3Cl)ccc21` [Example 1-7, 1-Carbamoylmethyl-6-(2,3-Dichlorobenzyl)-4-oxo-1,4-dihydroquinoline-3-carboxylic acid], the IC50 worked out at 0.067 µM.
Consider `O=C(O)c1cn(CCO)c2ccc(Cc3cc(O)ccc3Cl)cc2c1=O` [Example 4-11, 6-(2-Chloro-5-hydroxybenzyl)-1-(2-hydroxyethyl)-4-oxo-1,4-dihydroquinoline-3-carboxylic acid], for which the IC50 was found to be 0.22 µM.
In the case of `COc1c(Cl)cccc1Cc1ccc2c(c1)c(=O)c(C(=O)O)cn2CCO` [Example 3-3, 6-(3-Chloro-2-methoxybenzyl)-1-(2-hydroxyethyl)-4-oxo-1,4-dihydroquinoline-3-carboxylic acid], the IC50 was determined as 0.19 µM.
In the case of `COc1cc(Cc2cccc(Cl)c2F)cc2c(=O)c(C(=O)O)cn(CCO)c12` [Example 3-34, 6-(3-Chloro-2-fluorobenzyl)-1-(2-hydroxyethyl)-8-methoxy-4-oxo-1,4-dihydroquinoline-3-carboxylic acid] it was 0.011 µM; in that of `CC(C)C[C@@H](CO)n1cc(C(=O)O)c(=O)c2cc(Cc3cccc(Cl)c3F)c(OC(C)C)cc21` [Example 4-23, (S)-6-(3-Chloro-2-fluorobenzyl)-1-(1-hydroxymethyl-3-methylbutyl)-7-isopropyloxy-4-oxo-1,4-dihydroquinoline-3-carboxylic acid], 0.0038 µM.
The value for `CCN(CC)c1ccccc1Cc1ccc2c(c1)c(=O)c(C(=O)O)cn2CCO` [Example 3-42, 6-(2-Diethylaminobenzyl)-1-(2-hydroxyethyl)-4-oxo-1,4-dihydroquinoline-3-carboxylic acid] was 0.72 µM; that for `COc1cc(Cc2c(F)ccc(Cl)c2F)cc2c(=O)c(C(=O)O)cn([C@@H](C)CO)c12` [Example 3-57, (S)-6-(3-Chloro-2,6-difluorobenzyl)-1-(2-hydroxy-1-methylethyl)-8-methoxy-4-oxo-1,4-dihydroquinoline-3-carboxylic acid] was 0.015 µM.
For the molecule `CC(C)Cn1cc(C(=O)O)c(=O)c2cc(Cc3cccc(Cl)c3Cl)ccc21` [Example 1-18, 6-(2,3-Dichlorobenzyl)-1-isobutyl-4-oxo-1,4-dihydroquinoline-3-carboxylic acid], the IC50 worked out at 0.12 µM.
In the case of `O=C(O)c1cn(CCO)c2ccc(Cc3cc(Br)ccc3Cl)cc2c1=O` [Example 4-7, 6-(5-Bromo-2-chlorobenzyl)-1-(2-hydroxyethyl)-4-oxo-1,4-dihydroquinoline-3-carboxylic acid] it was 0.13 µM; in that of `O=C(O)c1cn(CCO)c2ncc(Cc3cccc(Cl)c3Cl)cc2c1=O` [Example 3-86], 0.14 µM.
The value for `COc1cc2c(cc1Cc1cccc(Cl)c1F)c(=O)c(C(=O)O)cn2[C@H](CO)C(C)(C)C` [Example 4-33, (S)-6-(3-Chloro-2-fluorobenzyl)-1-[2,2-dimethyl-1-(hydroxymethyl)propyl]-7-methoxy-4-oxo-1,4-dihydroquinoline-3-carboxylic acid] was 0.002 µM.
Consider `O=C(O)c1cn(C(CO)CO)c2ccc(Cc3cccc(Cl)c3F)cc2c1=O` [Example 3-26, 6-(3-Chloro-2-fluorobenzyl)-1-[2-hydroxy-1-(hydroxymethyl)ethyl]-4-oxo-1,4-dihydroquinoline-3-carboxylic acid], for which the IC50 was 0.011 µM.
Consider `CS(=O)(=O)Nn1cc(C(=O)O)c(=O)c2cc(Cc3cccc(Cl)c3Cl)ccc21` [Example 2-4, 6-(2,3-Dichlorobenzyl)-1-methanesulfonylamino-4-oxo-1,4-dihydroquinoline-3-carboxylic acid], for which the IC50 came out at 0.018 µM.
In the case of `O=C(O)c1cn(CCc2ccccn2)c2ccc(Cc3cccc(Cl)c3Cl)cc2c1=O` [Example 1-45, 6-(2,3-Dichlorobenzyl)-4-oxo-1-(2-pyridin-2-ylethyl)-1,4-dihydroquinoline-3-carboxylic acid], the half-maximal inhibitory concentration (IC50) was found to be 0.21 µM.
In the case of `O=C(O)c1cc2c(cc1Cc1cccc(Cl)c1Cl)c(=O)c(C(=O)O)cn2CCO` [Example 3-36, 7-Carboxy-6-(2,3-dichlorobenzyl)-1-(2-hydroxyethyl)-4-oxo-1,4-dihydroquinoline-3-carboxylic acid] it was 0.051 µM.
The value for `CC(C)Oc1cc2c(cc1Cc1cccc(Cl)c1F)c(=O)c(C(=O)O)cn2[C@@H](C)CO` [Example 3-74] was 0.0049 µM; that for `CNS(=O)(=O)Cn1cc(C(=O)O)c(=O)c2cc(Cc3c(F)cccc3Cl)ccc21` [Example 1-76, 6-(2-Chloro-6-fluorobenzyl)-1-methylsulfamoylmethyl-4-oxo-1,4-dihydroquinoline-3-carboxylic acid] was 0.028 µM.
The value for `CC(=O)Nc1cc(Cc2cccc(Cl)c2F)cc2c(=O)c(C(=O)O)cn(CCO)c12` [Example 3-39, 8-Acetylamino-6-(3-chloro-2-fluorobenzyl)-1-(2-hydroxyethyl)-4-oxo-1,4-dihydroquinoline-3-carboxylic acid] was 0.049 µM.
For `CN(C)S(=O)(=O)Cn1cc(C(=O)O)c(=O)c2cc(Cc3cccc(Cl)c3Cl)ccc21` [Example 1-72, 6-(2,3-Dichlorobenzyl)-1-dimethylsulfamoylmethyl-4-oxo-1,4-dihydroquinoline-3-carboxylic acid], the IC50 was found to be 0.025 µM.
In the case of `O=C(O)c1cn([C@H](CO)C2CCCCC2)c2ccc(Cc3cccc(Cl)c3F)cc2c1=O` [Example 4-18, (S)-6-(3-Chloro-2-fluorobenzyl)-1-(1-cyclohexyl-2-hydroxyethyl)-4-oxo-1,4-dihydroquinoline-3-carboxylic acid] it was 0.002 µM; in that of `O=C(O)c1cn(CCO)c2c(Oc3ccccc3)cc(Cc3cccc(Cl)c3F)cc2c1=O` [Example 3-52, 6-(3-Chloro-2-fluorobenzyl)-1-(2-hydroxyethyl)-4-oxo-8-phenoxy-1,4-dihydroquinoline-3-carboxylic acid], 0.012 µM.
